Key:
[1] = molecular target: T1, P-type amylase (Calibzyme P) (Homo sapiens, UniProt P04746); assay: amylase isozyme activity assay with sodium azide as activator, P-type amylase sample; type: biochemical; settings: for Percent residual enzyme activity: composition C/D
T1 construct: purchased International Reagents Corporation Calibzyme P
T1 sequence (P04746 16-511): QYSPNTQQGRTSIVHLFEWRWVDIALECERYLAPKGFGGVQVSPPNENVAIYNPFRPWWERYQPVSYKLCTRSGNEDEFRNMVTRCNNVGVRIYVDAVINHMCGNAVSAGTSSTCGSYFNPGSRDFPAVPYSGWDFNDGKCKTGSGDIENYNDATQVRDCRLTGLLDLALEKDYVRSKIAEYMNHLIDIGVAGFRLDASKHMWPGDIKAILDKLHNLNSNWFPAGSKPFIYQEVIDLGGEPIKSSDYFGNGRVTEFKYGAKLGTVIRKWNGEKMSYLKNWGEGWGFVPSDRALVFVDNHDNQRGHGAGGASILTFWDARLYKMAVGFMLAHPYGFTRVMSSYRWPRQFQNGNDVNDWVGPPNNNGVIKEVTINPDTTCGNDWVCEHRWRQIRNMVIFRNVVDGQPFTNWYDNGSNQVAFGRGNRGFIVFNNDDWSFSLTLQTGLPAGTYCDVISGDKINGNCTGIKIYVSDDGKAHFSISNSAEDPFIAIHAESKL
Procedure: (§1) S-type amylase inhibitory antibody 88E8 (manufactured by Roche Diagnostics K.K.) 20 mg/L
(§2) S-type amylase inhibitory antibody 66C7 (manufactured by Roche Diagnostics K.K.) 5 mg/L
(§3) Substrate (GalG2CNP (Example) or G3CNP (Comparative Example)) 2.6 mM
(2) P-type Amylase (Calibzyme P, Manufactured by International Reagents Corporation)
(§4) Each of the above-mentioned samples (0.05 mL) was added to respective reagent C and D (3 mL) and the mixtures were left standing at 37° C. for 3 minutes. Then, change in absorbance at 405 nm was assayed and change in absorbance per minute was calculated.
(§5) In the Tables, P is the case where P-type amylase was used as the sample, and S is the case where S-type amylase was used. The relative sensitivity of P and S is based on the change in absorbance of G3CNP as 100, wherein sodium azide was 300 mM.
(§6) Percent residual enzyme activity and relative sensitivity were calculated by the following formulas.
(§7) Percent residual enzyme activity (%)=(change in absorbance of composition C)/(change in absorbance of composition D)×100
(§8) Relative sensitivity (%)=(change in absorbance of composition D)/(change in absorbance of Comparative Example wherein sodium azide was 300 mM)×100

[2] = molecular target: T2, S-type amylase (Calibzyme S) (Homo sapiens, UniProt P0DUB6); assay: amylase isozyme activity assay with sodium azide as activator, S-type amylase sample; type: biochemical; settings: for Change in absorbance, Containing Antibody (Composition C) / Change in absorbance, Without antibody (Composition D) / Relative sensitivity / Percent residual enzyme activity: S-type amylase; for Relative sensitivity: G3CNP at 300 mM = 100; for Percent residual enzyme activity: composition C/D
T2 construct: purchased International Reagents Corporation Calibzyme S
T2 sequence (P0DUB6 16-511): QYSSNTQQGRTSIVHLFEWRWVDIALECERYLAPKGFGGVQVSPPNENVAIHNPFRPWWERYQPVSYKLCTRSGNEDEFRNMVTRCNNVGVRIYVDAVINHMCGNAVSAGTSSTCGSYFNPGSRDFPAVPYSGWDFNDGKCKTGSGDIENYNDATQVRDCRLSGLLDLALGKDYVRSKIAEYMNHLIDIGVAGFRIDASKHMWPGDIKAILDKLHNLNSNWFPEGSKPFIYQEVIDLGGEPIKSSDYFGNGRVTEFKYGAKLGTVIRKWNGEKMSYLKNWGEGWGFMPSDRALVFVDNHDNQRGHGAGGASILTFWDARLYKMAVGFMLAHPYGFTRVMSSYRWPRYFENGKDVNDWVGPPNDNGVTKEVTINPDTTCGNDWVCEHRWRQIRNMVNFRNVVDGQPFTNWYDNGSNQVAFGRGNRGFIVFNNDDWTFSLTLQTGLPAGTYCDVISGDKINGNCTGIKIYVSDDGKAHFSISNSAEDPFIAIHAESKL
Procedure: as §1, §2, §3
(3) S-type Amylase (Calibzyme S, Manufactured by International Reagents Corporation)
as §4, §5, §6, §7, §8

O=[N+]([O-])c1ccc(O[C@H]2O[C@H](CO)[C@@H](O[C@H]3O[C@H](CO)[C@@H](O[C@@H]4O[C@H](CO)[C@H](O)[C@H](O)[C@H]4O)[C@H](O)[C@H]3O)[C@H](O)[C@H]2O)c(Cl)c1 [GalG2CNP, 2-chloro-4-nitrophenyl 4-O-β-D-galactopyranosylmaltoside]
Change in absorbance, Containing Antibody (Composition C) ([1]; sodium azide 0 mM): 26.4 mABS/min | Change in absorbance, Without antibody (Composition D) ([1]; sodium azide 0 mM): 26.3 mABS/min | Relative sensitivity ([1]; sodium azide 0 mM, G3CNP at 300 mM = 100): 57.7% | Percent residual enzyme activity ([1]; sodium azide 0 mM): 100.4% | Change in absorbance, Containing Antibody (Composition C) ([1]; sodium azide 30 mM): 43.6 mABS/min | Change in absorbance, Without antibody (Composition D) ([1]; sodium azide 30 mM): 44.6 mABS/min | Relative sensitivity ([1]; sodium azide 30 mM, G3CNP at 300 mM = 100): 97.8% | Relative sensitivity ([1]; sodium azide 30 mM, G3CNP at 300 mM = 100, listed as Example): about 98% | Percent residual enzyme activity ([1]; sodium azide 30 mM): 97.8% | Change in absorbance, Containing Antibody (Composition C) ([1]; sodium azide 60 mM): 52.5 mABS/min | Change in absorbance, Without antibody (Composition D) ([1]; sodium azide 60 mM): 52.8 mABS/min | Relative sensitivity ([1]; sodium azide 60 mM, G3CNP at 300 mM = 100): 115.8% | Percent residual enzyme activity ([1]; sodium azide 60 mM): 99.4% | Change in absorbance, Containing Antibody (Composition C) ([1]; sodium azide 90 mM): 60.1 mABS/min | Change in absorbance, Without antibody (Composition D) ([1]; sodium azide 90 mM): 59.6 mABS/min | Relative sensitivity ([1]; sodium azide 90 mM, G3CNP at 300 mM = 100): 130.7% | Percent residual enzyme activity ([1]; sodium azide 90 mM): 100.8% | Change in absorbance, Containing Antibody (Composition C) ([1]; sodium azide 120 mM): 64.9 mABS/min | Change in absorbance, Without antibody (Composition D) ([1]; sodium azide 120 mM): 63.4 mABS/min | Relative sensitivity ([1]; sodium azide 120 mM, G3CNP at 300 mM = 100): 139.0% | Percent residual enzyme activity ([1]; sodium azide 120 mM): 102.4% | Change in absorbance, Containing Antibody (Composition C) ([1]; sodium azide 150 mM): 68.2 mABS/min | Change in absorbance, Without antibody (Composition D) ([1]; sodium azide 150 mM): 68.4 mABS/min | Relative sensitivity ([1]; sodium azide 150 mM, G3CNP at 300 mM = 100): 150.0% | Percent residual enzyme activity ([1]; sodium azide 150 mM): 99.7% | Change in absorbance, Containing Antibody (Composition C) ([1]; sodium azide 200 mM): 72.2 mABS/min | Change in absorbance, Without antibody (Composition D) ([1]; sodium azide 200 mM): 70.1 mABS/min | Relative sensitivity ([1]; sodium azide 200 mM, G3CNP at 300 mM = 100): 153.7% | Percent residual enzyme activity ([1]; sodium azide 200 mM): 103.0% | Change in absorbance, Containing Antibody (Composition C) ([1]; sodium azide 250 mM): 74.4 mABS/min | Change in absorbance, Without antibody (Composition D) ([1]; sodium azide 250 mM): 72.4 mABS/min | Relative sensitivity ([1]; sodium azide 250 mM, G3CNP at 300 mM = 100): 158.8% | Percent residual enzyme activity ([1]; sodium azide 250 mM): 102.8% | Change in absorbance, Containing Antibody (Composition C) ([1]; sodium azide 300 mM): 76.8 mABS/min | Change in absorbance, Without antibody (Composition D) ([1]; sodium azide 300 mM): 75.6 mABS/min | Relative sensitivity ([1]; sodium azide 300 mM, G3CNP at 300 mM = 100): 165.8% | Percent residual enzyme activity ([1]; sodium azide 300 mM): 101.6% | Change in absorbance, Containing Antibody (Composition C) ([2]; sodium azide 0 mM): 0.8 mABS/min | Change in absorbance, Without antibody (Composition D) ([2]; sodium azide 0 mM): 14.6 mABS/min | Relative sensitivity ([2]; sodium azide 0 mM): 31.8% | Percent residual enzyme activity ([2]; sodium azide 0 mM): 5.5% | Change in absorbance, Containing Antibody (Composition C) ([2]; sodium azide 30 mM): 1.6 mABS/min | Change in absorbance, Without antibody (Composition D) ([2]; sodium azide 30 mM): 33.2 mABS/min | Relative sensitivity ([2]; sodium azide 30 mM): 72.3% | Percent residual enzyme activity ([2]; sodium azide 30 mM): 4.8% | Change in absorbance, Containing Antibody (Composition C) ([2]; sodium azide 60 mM): 2.0 mABS/min | Change in absorbance, Without antibody (Composition D) ([2]; sodium azide 60 mM): 43.8 mABS/min | Relative sensitivity ([2]; sodium azide 60 mM): 95.4% | Percent residual enzyme activity ([2]; sodium azide 60 mM): 4.6% | Change in absorbance, Containing Antibody (Composition C) ([2]; sodium azide 90 mM): 2.4 mABS/min | Change in absorbance, Without antibody (Composition D) ([2]; sodium azide 90 mM): 49.6 mABS/min | Relative sensitivity ([2]; sodium azide 90 mM): 108.1% | Percent residual enzyme activity ([2]; sodium azide 90 mM): 4.8% | Change in absorbance, Containing Antibody (Composition C) ([2]; sodium azide 120 mM): 2.6 mABS/min | Change in absorbance, Without antibody (Composition D) ([2]; sodium azide 120 mM): 53.1 mABS/min | Relative sensitivity ([2]; sodium azide 120 mM): 115.7% | Percent residual enzyme activity ([2]; sodium azide 120 mM): 4.9% | Change in absorbance, Containing Antibody (Composition C) ([2]; sodium azide 150 mM): 2.4 mABS/min | Change in absorbance, Without antibody (Composition D) ([2]; sodium azide 150 mM): 57.8 mABS/min | Relative sensitivity ([2]; sodium azide 150 mM): 125.9% | Percent residual enzyme activity ([2]; sodium azide 150 mM): 4.2% | Change in absorbance, Containing Antibody (Composition C) ([2]; sodium azide 200 mM): 2.6 mABS/min | Change in absorbance, Without antibody (Composition D) ([2]; sodium azide 200 mM): 61.1 mABS/min | Relative sensitivity ([2]; sodium azide 200 mM): 133.1% | Percent residual enzyme activity ([2]; sodium azide 200 mM): 4.3% | Change in absorbance, Containing Antibody (Composition C) ([2]; sodium azide 250 mM): 2.5 mABS/min | Change in absorbance, Without antibody (Composition D) ([2]; sodium azide 250 mM): 67.3 mABS/min | Relative sensitivity ([2]; sodium azide 250 mM): 146.6% | Percent residual enzyme activity ([2]; sodium azide 250 mM): 3.7% | Change in absorbance, Containing Antibody (Composition C) ([2]; sodium azide 300 mM): 2.6 mABS/min | Change in absorbance, Without antibody (Composition D) ([2]; sodium azide 300 mM): 66.8 mABS/min | Relative sensitivity ([2]; sodium azide 300 mM): 145.5% | Percent residual enzyme activity ([2]; sodium azide 300 mM): 3.9% | percent inhibition of S-type amylase ([2]; irrespective of sodium azide concentrations, FIG. 4 and FIG. 5): around 95%

— US6350585B1, “Reagent for assay of amylase isozyme activity” (priority 1998, dated 2002)
